Experimental data published in patent publication US8952024B2, “Herbicidal pyrimidone derivatives” (E I du Pont de Nemours and Company, priority 2009, dated 2015).

What was measured:
Assay type in all cases: in vivo
[1] = system: barnyardgrass (Echinochloa crus-galli); test: Test B flooded paddy test; details: for Plant response rating, Flood, Barnyardgrass: 250 g ai/ha, flooded paddy test, visual rating on 0 to 100 scale (0 no effect, 100 complete control) after 13 to 15 days; for Plant response rating, Barnyardgrass: Flood (flooded paddy test), 13 to 15 days; for Barnyardgrass plant response rating: Flood, 31 g ai/ha, scale 0 to 100 (0 no effect, 100 complete control)
How it was run: (§1)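 Visual scores run from 0 (no effect) to 100 (complete control), assigned by comparison with controls 13 to 15 days after treatment. Test compounds went straight into water standing 3 cm above the soil, around plants at the 2-leaf stage kept in a greenhouse.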

[2] = system: umbrella sedge (Cyperus difformis); test: Test B flooded paddy test; details: for Plant response rating, Flood, Sedge, Umbrella: 250 g ai/ha, flooded paddy test, visual rating on 0 to 100 scale (0 no effect, 100 complete control) after 13 to 15 days; for Plant response rating, Sedge, Umbrella: Flood (flooded paddy test), 13 to 15 days; for Sedge, Umbrella plant response rating: Flood, 31 g ai/ha, scale 0 to 100 (0 no effect, 100 complete control)
How it was run: as §1

[3] = system: ducksalad (Heteranthera limosa); test: Test B flooded paddy test; details: for Plant response rating, Flood, Ducksalad: 250 g ai/ha, flooded paddy test, visual rating on 0 to 100 scale (0 no effect, 100 complete control) after 13 to 15 days; for Plant response rating, Ducksalad: Flood (flooded paddy test), 13 to 15 days; for Ducksalad plant response rating: Flood, 31 g ai/ha, scale 0 to 100 (0 no effect, 100 complete control)
How it was run: as §1

rice (Oryza sativa) = test: Test B flooded paddy test; details: for Plant response rating, Flood, Rice: 250 g ai/ha, flooded paddy test, visual rating on 0 to 100 scale (0 no effect, 100 complete control) after 13 to 15 days; for Plant response rating, Rice: Flood (flooded paddy test), 13 to 15 days; for Rice plant response rating: Flood, 31 g ai/ha, scale 0 to 100 (0 no effect, 100 complete control)
How it was run: as §1

[4] = system: velvetleaf (Abutilon theophrasti); test: Test A pre-/postemergence plant response
How it was run: (§2)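 Seeds planted in loam soil/sand blend; test chemicals in non-phytotoxic solvent mixture with surfactant applied as directed soil spray preemergence and, concurrently, postemergence to plants 2–10 cm tall at one- to two-leaf stage. Greenhouse ~10 days; visual injury vs untreated controls, 0 (no effect) to 100 (complete control).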

[5] = system: barnyardgrass (Echinochloa crus-galli); test: Test A pre-/postemergence plant response
How it was run: as §2

[6] = system: morningglory (Ipomoea spp.); test: Test A pre-/postemergence plant response
How it was run: as §2

[7] = system: large crabgrass (Digitaria sanguinalis); test: Test A pre-/postemergence plant response
How it was run: as §2

[8] = system: wheat (Triticum aestivum); test: Test A pre-/postemergence plant response
How it was run: as §2

corn (Zea mays) = test: Test A pre-/postemergence plant response
How it was run: as §2

[9] = system: giant foxtail (Setaria faberii); test: Test A pre-/postemergence plant response
How it was run: as §2

[10] = system: pigweed (Amaranthus retroflexus); test: Test A pre-/postemergence plant response
How it was run: as §2

[11] = 62 g ai/ha, scale of 0 to 100 where 0 is no effect and 100 is complete control
[12] = 125 g ai/ha, scale 0 to 100, 0 is no effect, 100 is complete control
[13] = Postemergence, 125 g ai/ha, 0 to 100 scale where 0 is no effect and 100 is complete control
[14] = Postemergence, 500 g ai/ha, 0 to 100 scale, 0 = no effect, 100 = complete control, approx. ten days
[15] = Preemergence, 125 g ai/ha, 0 to 100 scale, 0 = no effect, 100 = complete control
[16] = Preemergence, 500 g ai/ha, 0 to 100 scale, 0 = no effect, 100 = complete control
[17] = Preemergence, 500 g ai/ha, visual injury, 0 to 100 scale (0 no effect, 100 complete control), approx. ten days

CCCn1c(-c2cccc(C(F)(F)F)c2)ncc(C(=O)C2=C(O)CCCC2=O)c1=O [Compound 155]
Plant response rating, Flood, Barnyardgrass [1]: 45 | Plant response rating, Barnyardgrass [1, 11]: 0 | Plant response rating, Barnyardgrass [1, 12]: 20 | Barnyardgrass plant response rating [1]: 0 | Plant response rating, Flood, Sedge, Umbrella [2]: 100 | Plant response rating, Sedge, Umbrella [2, 11]: 60 | Plant response rating, Sedge, Umbrella [2, 12]: 85 | Sedge, Umbrella plant response rating [2]: 60 | Plant response rating, Flood, Ducksalad [3]: 95 | Plant response rating, Ducksalad [3, 11]: 60 | Plant response rating, Ducksalad [3, 12]: 85 | Ducksalad plant response rating [3]: 0 | Plant response rating, Flood, Rice (rice (Oryza sativa)): 45 | Plant response rating, Rice (rice (Oryza sativa); [11]): 0 | Plant response rating, Rice (rice (Oryza sativa); [12]): 25 | Rice plant response rating (rice (Oryza sativa)): 0 | Plant response rating, Velvetleaf [4, 13]: 100 | Plant response rating, Velvetleaf [4, 14]: 100 | Plant response rating, Velvetleaf [4, 15]: 60 | Plant response rating, Velvetleaf [4, 16]: 100 | Plant response rating, Barnyardgrass [5, 13]: 90 | Plant response rating, Barnyardgrass [5, 14]: 100 | Plant response rating, Barnyardgrass [5, 15]: 10 | Plant response rating, Barnyardgrass [5, 17]: 90 | Plant response rating, Morningglory [6, 13]: 100 | Plant response rating, Morningglory [6, 14]: 100 | Plant response rating, Morningglory [6, 15]: 0 | Plant response rating, Morningglory [6, 17]: 0 | Plant response rating, Crabgrass, Large [7, 13]: 70 | Plant response rating, Crabgrass, Large [7, 14]: 90 | Plant response rating, Crabgrass, Large [7, 15]: 60 | Plant response rating, Crabgrass, Large [7, 17]: 90 | Plant response rating, Wheat [8, 13]: 0 | Plant response rating, Wheat [8, 14]: 30 | Plant response rating, Wheat [8, 15]: 0 | Plant response rating, Wheat [8, 16]: 0 | Plant response rating, Corn (corn (Zea mays); [13]): 20 | Plant response rating, Corn (corn (Zea mays); [14]): 40 | Plant response rating, Corn (corn (Zea mays); [15]): 0 | Plant response rating, Corn (corn (Zea mays); [17]): 30 | Plant response rating, Foxtail, Giant [9, 13]: 80 | Plant response rating, Foxtail, Giant [9, 14]: 90 | Plant response rating, Foxtail, Giant [9, 15]: 30 | Plant response rating, Foxtail, Giant [9, 17]: 60 | Plant response rating, Pigweed [10, 13]: 100 | Plant response rating, Pigweed [10, 14]: 100 | Plant response rating, Pigweed [10, 15]: 90 | Plant response rating, Pigweed [10, 17]: 90

CCCn1c(-c2cc(C)cc(C)c2)ncc(C(=O)C2=C(O)CCCC2=O)c1=O [Compound 156]
Plant response rating, Flood, Barnyardgrass [1]: 60 | Plant response rating, Barnyardgrass [1, 11]: 20 | Plant response rating, Barnyardgrass [1, 12]: 40 | Barnyardgrass plant response rating [1]: 0 | Plant response rating, Flood, Sedge, Umbrella [2]: 100 | Plant response rating, Sedge, Umbrella [2, 11]: 95 | Plant response rating, Sedge, Umbrella [2, 12]: 100 | Sedge, Umbrella plant response rating [2]: 0 | Plant response rating, Flood, Ducksalad [3]: 100 | Plant response rating, Ducksalad [3, 11]: 65 | Plant response rating, Ducksalad [3, 12]: 80 | Ducksalad plant response rating [3]: 0 | Plant response rating, Flood, Rice (rice (Oryza sativa)): 35 | Plant response rating, Rice (rice (Oryza sativa); [11]): 30 | Plant response rating, Rice (rice (Oryza sativa); [12]): 20 | Rice plant response rating (rice (Oryza sativa)): 30 | Plant response rating, Velvetleaf [4, 13]: 100 | Plant response rating, Velvetleaf [4, 14]: 100 | Plant response rating, Velvetleaf [4, 15]: 0 | Plant response rating, Velvetleaf [4, 16]: 50 | Plant response rating, Barnyardgrass [5, 13]: 90 | Plant response rating, Barnyardgrass [5, 14]: 90 | Plant response rating, Barnyardgrass [5, 15]: 0 | Plant response rating, Barnyardgrass [5, 17]: 80 | Plant response rating, Morningglory [6, 13]: 100 | Plant response rating, Morningglory [6, 14]: 100 | Plant response rating, Morningglory [6, 15]: 0 | Plant response rating, Morningglory [6, 17]: 0 | Plant response rating, Crabgrass, Large [7, 13]: 70 | Plant response rating, Crabgrass, Large [7, 14]: 80 | Plant response rating, Crabgrass, Large [7, 15]: 10 | Plant response rating, Crabgrass, Large [7, 17]: 50 | Plant response rating, Wheat [8, 13]: 0 | Plant response rating, Wheat [8, 14]: 20 | Plant response rating, Wheat [8, 15]: 0 | Plant response rating, Wheat [8, 16]: 0 | Plant response rating, Corn (corn (Zea mays); [13]): 20 | Plant response rating, Corn (corn (Zea mays); [14]): 20 | Plant response rating, Corn (corn (Zea mays); [15]): 0 | Plant response rating, Corn (corn (Zea mays); [17]): 20 | Plant response rating, Foxtail, Giant [9, 13]: 80 | Plant response rating, Foxtail, Giant [9, 14]: 90 | Plant response rating, Foxtail, Giant [9, 15]: 10 | Plant response rating, Foxtail, Giant [9, 17]: 50 | Plant response rating, Pigweed [10, 13]: 100 | Plant response rating, Pigweed [10, 14]: 100 | Plant response rating, Pigweed [10, 15]: 70 | Plant response rating, Pigweed [10, 17]: 80
